{"source": "patent US20250197396A1", "about": "“COMPOUNDS FOR INHIBITING INOSITOL HEXAKISPHOSPHATE KINASE (IP6K) AND METHODS OF USE THEREOF” (Lieber Institute, Inc., priority 2020, published 2025)"}
{"target": "IP6K1 (Homo sapiens (Human), UniProt Q92551)", "sequence (Q92551 whole entry, species assumed)": "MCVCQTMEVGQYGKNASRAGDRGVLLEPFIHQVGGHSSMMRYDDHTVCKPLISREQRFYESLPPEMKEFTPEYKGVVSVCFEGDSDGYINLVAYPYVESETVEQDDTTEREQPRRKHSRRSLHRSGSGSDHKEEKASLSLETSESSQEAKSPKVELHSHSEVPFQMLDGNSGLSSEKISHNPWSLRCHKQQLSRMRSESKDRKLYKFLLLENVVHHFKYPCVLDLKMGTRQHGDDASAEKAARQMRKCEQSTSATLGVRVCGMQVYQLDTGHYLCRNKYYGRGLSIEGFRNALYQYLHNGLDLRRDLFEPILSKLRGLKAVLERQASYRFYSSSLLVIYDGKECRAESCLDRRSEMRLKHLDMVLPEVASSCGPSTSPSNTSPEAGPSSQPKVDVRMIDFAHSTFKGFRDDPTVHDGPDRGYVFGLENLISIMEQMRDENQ", "assay": "IP6K1 IC50 of compounds of Formula (IA) and Formula (IB)", "format": "biochemical", "conditions": "not given", "units": {"IC50": "µM"}}
{"smiles": "O=C(O)c1ccc2[nH]c(=O)n(C3CN(Cc4ccc(Cl)cc4Cl)C3)c2c1", "note": "[Cmpd 11b, 3-(1-(2,4-dichlorobenzyl)azetidin-3-yl)-2-oxo-2,3-dihydro-1H-benzo[d]imidazole-5-carboxylic acid]", "IP6K1 IC50": "+ +"}
{"smiles": "O=C(O)c1ccc2c(c1)C1(CCN(C(=O)c3ccccc3Cl)CC1)C(=O)N2", "note": "[Cmpd 14a, 1′-(2-chlorobenzoyl)-2-oxospiro[indoline-3,4′-piperidine]-5-carboxylic acid]", "IP6K1 IC50": "+ +"}
{"smiles": "O=C(O)c1ccc2c(c1)C1(CCN(C(=O)c3ccc(Cl)cc3)CC1)C(=O)N2", "note": "[Cmpd 2a, 1′-(4-chlorobenzoyl)-2-oxospiro[indoline-3,4′-piperidine]-5-carboxylic acid]", "IP6K1 IC50": "+ + +"}
{"smiles": "O=C(O)c1ccc2[nH]c(=O)n(C3CN(C(=O)c4ccc(Cl)cc4Cl)C3)c2c1", "note": "[Cmpd 10b, 3-(1-(2,4-dichlorobenzoyl)azetidin-3-yl)-2-oxo-2,3-dihydro-1H-benzo[d]imidazole-5-carboxylic acid]", "IP6K1 IC50": "+ +"}
{"smiles": "O=C(O)c1ccc2c(c1)C1(CCN(C(=O)C3CC3)CC1)C(=O)N2", "note": "[Cmpd 10a, 1′-(cyclopropanecarbonyl)-2-oxospiro[indoline-3,4′-piperidine]-5-carboxylic acid]", "IC50": "3 to 30"}
{"smiles": "O=C(O)c1ccc2[nH]c(=O)n([C@@H]3CCN(C(=O)c4ccc(Cl)cc4Cl)C3)c2c1", "note": "[Cmpd 14b, (R)-3-(1-(2,4-dichlorobenzoyl)pyrrolidin-3-yl)-2-oxo-2,3-dihydro-1H-benzo[d]imidazole-5-carboxylic acid]", "IP6K1 IC50": "+ +"}
{"smiles": "COC(=O)c1ccc2c(c1)C1(CCN(C(=O)c3ccc(Cl)cc3)CC1)C(=O)N2", "note": "[Cmpd 3a, Methyl 1′-(4-chlorobenzoyl)-2-oxospiro[indoline-3,4′-piperidine]-5-carboxylate]", "IC50": "3 to 30"}
{"smiles": "O=C(O)c1ccc2c(c1)C1(CCN(C(=O)COc3ccc(Cl)cc3)CC1)C(=O)N2", "note": "[Cmpd 9a, 1′-(2-(4-chlorophenoxy)acetyl)-2-oxospiro[indoline-3,4′-piperidine]-5-carboxylic acid]", "IP6K1 IC50": "+ +"}
{"smiles": "O=C(O)c1ccc2c(c1)C1(CCN(Cc3ccc(Cl)cc3)CC1)C(=O)N2", "note": "[Cmpd 5a, 1′-(4-chlorobenzyl)-2-oxospiro[indoline-3,4′-piperidine]-5-carboxylic acid]", "IP6K1 IC50": "+ +"}
{"smiles": "CC(=O)N1CCC2(CC1)C(=O)Nc1ccc(C(=O)O)cc12", "note": "[Cmpd 12a, 1′-acetyl-2-oxospiro[indoline-3,4′-piperidine]-5-carboxylic acid]", "IC50": "3 to 30"}
{"smiles": "O=C(O)c1ccc2[nH]c(=O)n(CC3CCN(C(=O)c4ccc(Cl)cc4Cl)C3)c2c1", "note": "(stereo not drawn) [Cmpd 19b, 3-((1-(2,4-dichlorobenzoyl)pyrrolidin-3-yl)methyl)-2-oxo-2,3-dihydro-1H-benzo[d]imidazole-5-carboxylic acid]", "IP6K1 IC50": "+ +"}
{"smiles": "O=C(O)c1ccc2c(c1)C1(CCN(C(=O)Nc3ccc(Cl)cc3)CC1)C(=O)N2", "note": "[Cmpd 7a, 1′-((4-chlorophenyl)carbamoyl)-2-oxospiro[indoline-3,4′-piperidine]-5-carboxylic acid]", "IP6K1 IC50": "+ + +"}
{"smiles": "O=C(O)c1ccc2[nH]c(=O)n([C@@H]3CCN(Cc4ccc(Cl)cc4Cl)C3)c2c1", "note": "[Cmpd 15b, (R)-3-(1-(2,4-dichlorobenzyl)pyrrolidin-3-yl)-2-oxo-2,3-dihydro-1H-benzo[d]imidazole-5-carboxylic acid]", "IP6K1 IC50": "+ +"}
{"smiles": "O=C(O)c1ccc2c(c1)C1(CCN(C(=O)c3ccc(Cl)cc3Cl)CC1)C(=O)N2", "note": "[Cmpd 17a, 1′-(2,4-dichlorobenzoyl)-2-oxospiro[indoline-3,4′-piperidine]-5-carboxylic acid]", "IP6K1 IC50": "+ + +"}
{"smiles": "O=C(O)c1cc2c(cc1F)[nH]c(=O)n2[C@H]1CC[C@H](Oc2ncc(Cl)cc2Cl)CC1", "note": "[Cmpd 7b, 3-((1r,4r)-4-((3,5-dichloropyridin-2-yl)oxy)cyclohexyl)-6-fluoro-2-oxo-2,3-dihydro-1H-benzo[d]imidazole-5-carboxylic acid]", "IP6K1 IC50": "+ + +"}
{"smiles": "O=C(O)c1ccc2[nH]c(=O)n(C3CCN(C(=O)c4ccc(Cl)cc4Cl)CC3)c2c1", "note": "[Cmpd 3b, 3-(1-(2,4-dichlorobenzoyl)piperidin-4-yl)-2-oxo-2,3-dihydro-1H-benzo[d]imidazole-5-carboxylic acid]", "IP6K1 IC50": "+ + +"}
{"smiles": "O=C(O)c1ccc2[nH]c(=O)n(C3CCN(C(=O)c4ccccc4Cl)CC3)c2c1", "note": "[Cmpd 1b, 3-(1-(2-chlorobenzoyl)piperidin-4-yl)-2-oxo-2,3-dihydro-1H-benzo[d]imidazole-5-carboxylic acid]", "IP6K1 IC50": "+ +"}
{"smiles": "O=C(O)c1ccc2c(c1)[nH]c(=O)n2C1CCN(C(=O)c2ccc(Cl)cc2Cl)CC1", "note": "[Cmpd 16b, 1-(1-(2,4-dichlorobenzoyl)piperidin-4-yl)-2-oxo-2,3-dihydro-1H-benzo[d]imidazole-5-carboxylic acid]", "IP6K1 IC50": "+ +"}
{"smiles": "O=C(O)c1ccc2[nH]c(=O)n(CCOc3ccc(Cl)cc3)c2c1", "note": "[Cmpd 8b, 3-(2-(4-chlorophenoxy)ethyl)-2-oxo-2,3-dihydro-1H-benzo[d]imidazole-5-carboxylic acid]", "IP6K1 IC50": "+ +"}
{"smiles": "O=C(O)c1ccc2[nH]c(=O)n([C@H]3CC[C@H](Oc4ncc(Cl)cc4Cl)CC3)c2c1", "note": "[Cmpd 5b, 3-((1r,4r)-4-((3,5-dichloropyridin-2-yl)oxy)cyclohexyl)-2-oxo-2,3-dihydro-1H-benzo[d]imidazole-5-carboxylic acid]", "IP6K1 IC50": "+ + +"}
{"smiles": "O=C(O)c1ccc2[nH]c(=O)n([C@H]3CC[C@@H](Oc4ncc(Cl)cc4Cl)CC3)c2c1", "note": "[Cmpd 6b, 3-((1s,4s)-4-((3,5-dichloropyridin-2-yl)oxy)cyclohexyl)-2-oxo-2,3-dihydro-1H-benzo[d]imidazole-5-carboxylic acid]", "IP6K1 IC50": "+ + +"}
{"smiles": "O=C(O)c1ccc2c(c1)C1(CCN(C(=O)c3ncc(Cl)cc3Cl)CC1)C(=O)N2", "note": "[Cmpd 6a, 1′-(3,5-dichloropicolinoyl)-2-oxospiro[indoline-3,4′-piperidine]-5-carboxylic acid]", "IP6K1 IC50": "+ + +"}
{"smiles": "O=C(O)c1ccc2c(c1)C1(CCN(C(=O)Cc3ccc(Cl)cc3)CC1)C(=O)N2", "note": "[Cmpd 4a, 1′-(2-(4-chlorophenyl)acetyl)-2-oxospiro[indoline-3,4′-piperidine]-5-carboxylic acid]", "IP6K1 IC50": "+ +"}
{"smiles": "O=C(O)c1ccc2[nH]c(=O)n(CCCOc3ncc(Cl)cc3Cl)c2c1", "note": "[Cmpd 9b, 3-(3-((3,5-dichloropyridin-2-yl)oxy)propyl)-2-oxo-2,3-dihydro-1H-benzo[d]imidazole-5-carboxylic acid]", "IP6K1 IC50": "+ + +"}
{"smiles": "O=C(O)c1ccc2[nH]c(=O)n(CC3CCN(Cc4ccc(Cl)cc4Cl)C3)c2c1", "note": "(stereo not drawn) [Cmpd 18b, 3-((1-(2,4-dichlorobenzyl)pyrrolidin-3-yl)methyl)-2-oxo-2,3-dihydro-1H-benzo[d]imidazole-5-carboxylic acid]", "IC50": "3 to 30"}
{"smiles": "O=C(O)c1ccc2c(c1)C1(CCN(S(=O)(=O)c3ccc(Cl)cc3)CC1)C(=O)N2", "note": "[Cmpd 1a, 1′-((4-chlorophenyl)sulfonyl)-2-oxospiro[indoline-3,4′-piperidine]-5-carboxylic acid]", "IP6K1 IC50": "+ +"}
{"smiles": "O=C(O)c1ccc2[nH]c(=O)n([C@H]3CCN(Cc4ccc(Cl)cc4Cl)C3)c2c1", "note": "[Cmpd 13b, (S)-3-(1-(2,4-dichlorobenzyl)pyrrolidin-3-yl)-2-oxo-2,3-dihydro-1H-benzo[d]imidazole-5-carboxylic acid]", "IP6K1 IC50": "+ +"}
{"smiles": "CC(C)C(=O)N1CCC2(CC1)C(=O)Nc1ccc(C(=O)O)cc12", "note": "[Cmpd 13a, 1′-isobutyryl-2-oxospiro[indoline-3,4′-piperidine]-5-carboxylic acid]", "IC50": "3 to 30"}
{"smiles": "O=C(O)c1ccc2[nH]c(=O)n([C@H]3CCN(C(=O)c4ccc(Cl)cc4Cl)C3)c2c1", "note": "[Cmpd 12b, (S)-3-(1-(2,4-dichlorobenzoyl)pyrrolidin-3-yl)-2-oxo-2,3-dihydro-1H-benzo[d]imidazole-5-carboxylic acid]", "IP6K1 IC50": "+ +"}
{"smiles": "O=C(O)c1ccc2c(c1)C1(CCN(Cc3ccccc3Cl)CC1)C(=O)N2", "note": "[Cmpd 15a, 1′-(2-chlorobenzyl)-2-oxospiro[indoline-3,4′-piperidine]-5-carboxylic acid]", "IP6K1 IC50": "+ +"}
{"smiles": "O=C(O)c1ccc2c(c1)C1(CCN(C(=O)c3ccc(C(F)(F)F)cc3)CC1)C(=O)N2", "note": "[Cmpd 8a, 2-oxo-1′-(4-(trifluoromethyl)benzoyl)spiro[indoline-3,4′-piperidine]-5-carboxylic acid]", "IP6K1 IC50": "+ + +"}
{"system": "Mice treated with HFD", "assay": "not given", "conditions": "HFD 8 weeks then daily intraperitoneal 20 mg/kg TNP and HFD for 18 days; cited from earlier work"}
{"smiles": "O=[N+]([O-])c1ccc(CNc2nc(NCc3cccc(C(F)(F)F)c3)nc3nc[nH]c23)cc1", "note": "[TNP, N2-(m-trifluorobenzyl)-N6-(p-nitrobenzyl)purine]", "glucose tolerance and insulin sensitivity": "improved", "serum insulin levels": "lower"}
